Values quoted from earlier work as cited in patent US7919499B2, “Naltrexone long acting formulations and methods of use” (Alkermes, Inc., priority 2004, dated 2011).
Read-outs that look alike come from different tables or passages of the source.

System: patients with alcohol dependence
Settings: oral vs placebo; for Risk difference as % reduction, relapse to heavy drinking / Risk difference (95% CI), relapse to heavy drinking: Hopkins meta-analysis; for Risk difference (95% CI), relapse to heavy drinking: nine studies, fixed effects model
[1] = Bouza et al, short term studies (≦12 weeks), listed as Oral Naltrexone
[2] = Cochrane Review, 12 weeks, listed as Oral Naltrexone

Which results are given for O=C1CC[C@@]2(O)[C@H]3Cc4ccc(O)c5c4[C@@]2(CCN3CC2CC2)[C@H]1O5 [oral naltrexone, naltrexone]?
Decrease of odds of relapsing to heavy drinking relative to placebo (Bouza et al, short term studies (≦12 weeks)): 38%; Decrease of odds of relapsing to heavy drinking relative to placebo [1]: (38% reduction); Odds ratio (95% CI), relapse to heavy drinking [1]: 0.62 (0.52, 0.75); Decrease of relapse rate relative to placebo (Cochrane Review, 12 weeks): 36%; Decrease of relapse rate relative to placebo [2]: (36% reduction); Relative risk (95% CI), relapse to heavy drinking [2]: 0.64 (0.51, 0.82); Risk difference as % reduction, relapse to heavy drinking: 13%; Risk difference (95% CI), relapse to heavy drinking: 0.13; Risk difference (95% CI), relapse to heavy drinking (listed as Oral Naltrexone): 0.13 (0.08, 0.17); Risk difference as % reduction, relapse to heavy drinking (listed as Oral Naltrexone): (13% reduction)
